From patent publication US20200024223A1, “CRYSTALLINE SALTS OF (4S,4AS,5AR,12AS)-4-DIMETHYLAMINO-3,10,12,12A-TETRAHYDROXY-7-[(METHOXY(METHYL)AMINO)-METHYL]-1,11-DIOXO-1,4,4A,5,5A,6,11,12A-OCTAHYDRO-NAPHTHACENE-2-CARBOXYLIC ACID AMIDE AND METHODS OF USING THE SAME” (priority 2011, published 2020)
Converted amounts (≈) assume the structure as drawn. “And” between values parts separate entries of the source, which are not always exact repeats. Equal entries are not always repeated. Structures can show the parent of a compound that is named as a salt.

Legend:
[1] = Storage stability by HPLC-UV (chemical purity, β-isomer content, total impurity content); format: physicochemical; conditions: for Chemical Purity at 0 days / β-isomer content at 0 days: 0 days (after synthesis); for Chemical Purity at 75 days / β-isomer content at 75 days: stored in glass vial approximately 75 days at ambient conditions; for Chemical Purity at 7 days, 40° C. and 75% RH / β-isomer content at 7 days, 40° C. and 75% RH: storage 7 days at 40° C. and 75% RH
Procedure: The lower the β-isomer content, the higher the chemical purity of the salt. The β-isomer content is measured after synthesis of the salt and compared with the measured β-isomer content after storage for a designated period of time.
Another measure of chemical purity is defined by the content of other related impurities, by-products or degradation products of the salt, which represents the […] of the compound. The lower the content of total impurities as measured by HPLC, generally, by HPLC-UV, the higher the chemical purity of the salt. The total impurity content is measured after synthesis of the salt and compared with the measured total impurity content after storage for a designated period of time.
In order to determine the stability of Crystalline Mono Hydrochloride Salt, the β-isomer content of the salt was determined by HPLC-UV analysis and compared to the β-isomer content calculated after the salt was stored in an amber glass vial for approximately 75 days at ambient conditions.
The β-isomer content of Comparative Example 2 was also determined by HPLC-UV analysis at 0 days and compared to the β-isomer content calculated after the compound was stored in a clear glass vial for approximately 75 days at ambient conditions.
HPLC-UV and XRPD analysis were conducted on samples of Crystalline Mono Hydrochloride Salt, Crystalline Mesylate Salt and Crystalline Sulfate Salt at 0 days and after storage for 7 days at 40° C. and 75% RH. FIGS. 1, 4 and 7 show the XRPD analysis of the Crystalline Mono Hydrochloride Salt, Crystalline Mesylate Salt and Crystalline Sulfate Salt at 0 days and after storage at 40° C. and 75% RH with the graphs overlaid for comparison.
The results of HPLC-UV analysis for the same samples of Crystalline Mesylate Salt and Crystalline Sulfate Salt are shown in Table 4.

[2] = Advantages and disadvantages of solid forms (hygroscopicity, milling/pressing, storage); format: physicochemical; conditions: for Hygroscopicity: relative humidity (RH)
Source text: One measure of the stability of the physical form of the salt is hygroscopicity, which is the propensity of a substance to absorb or adsorb water molecules from the surrounding environment. Whenever moisture can promote degradation, the salt is stable if it is non-hygroscopic or mildly hygroscopic above 70% relative humidity (RH). In preferred embodiments, the salt is non-hygroscopic or mildly hygroscopic above 80% RH, and in more preferred embodiments, the salt is non-hygroscopic or mildly hygroscopic to 90% RH. “Non-hygroscopic or mildly hygroscopic” as used herein refers to a compound at about 40° C. and at an RH of about 75%, existing over about 80% w/w in solid crystalline form, preferably over about 90% w/w in solid crystalline form, that absorbs less than 10% w/w water, and preferably, less than 5% w/w water in 8 hours or less. Hygroscopicity (hygroscopic degree) is calculated based on increase in weight in a compound at comparative points of measurement. Another measure of physical stability is the crystal form of the salt, which may be measured by XPRD. The stability of Crystalline Mono Hydrochloride Salt was compared to the amorphous mono hydrochloride salt of Comparative Example 2.

S. agalactiae = assay: In vitro MIC testing, antibacterial spectrum of activity; format: cell-based
E. coli = assay: as above; format: cell-based
[3] = XRPD analysis of crystal form after storage; format: physicochemical; conditions: 7 days at 40° C. and 75% RH vs 0 days
Procedure: XRPD analysis as disclosed herein was collected on a Bruker AXS C2 GADDS diffractometer using Cu Kα radiation (40 kV, 40 mA), automated XYZ stage, laser video microscope for auto-sample positioning and a HiStar 2-dimensional area detector. X-ray optics consisted of a single Gbbel multilayer mirror coupled with a pinhole collimator of 0.3 mm. The software used for data collection was GADDS for WNT 4.1.16 and the data was analyzed and presented using Diffrac Plus EVA v 9.0.0.2 or v 13.0.0.2. Samples were analyzed under ambient conditions as flat plate specimens using powder as received. Approximately 1-2 mg of the sample was lightly pressed on a glass slide to obtain a flat surface. Samples analyzed under non-ambient conditions were mounted on a silicon wafer with a heat conducting compound. The sample was then heated to the appropriate temperature at approximately 20° C.min^−1 and subsequently held isothermally for approximately 1 minute before data collection was initiated.
HPLC-UV and XRPD analysis were conducted on samples of Crystalline Mono Hydrochloride Salt, Crystalline Mesylate Salt and Crystalline Sulfate Salt at 0 days and after storage for 7 days at 40° C. and 75% RH. FIGS. 1, 4 and 7 show the XRPD analysis of the Crystalline Mono Hydrochloride Salt, Crystalline Mesylate Salt and Crystalline Sulfate Salt at 0 days and after storage at 40° C. and 75% RH with the graphs overlaid for comparison. […] The changes shown in the figure are in intensity and resolution rather than in peak position, which, if present, would indicate change in crystal form. Accordingly, Crystalline Mono Hydrochloride Salt and Crystalline Mesylate Salt are physically stable, as shown by FIGS. 1 and 4.

[4] = Thermo-gravimetric analysis (TGA); format: physicochemical
Procedure: TGA is used to determine changes in weight in relation to change in temperature, which may reveal degradation of the compound and the presence of solvates or hydrates. TGA analysis as disclosed herein was collected on a TA Instruments Q500 TGA equipped with a 16 position auto-sampler. The instrument was temperature calibrated using certified Alumel and Nickel. […] A nitrogen purge at 60 ml.min^−1 was maintained over the sample. The instrument control and data analysis software used was Advantage for Q Series v2.8.0.392 and Thermal Advantage v4.8.3 and the data was analyzed using Universal Analysis v4.4A. […] The observed apparent weight loss is due to instability of the machine. Table 5 below compares the DSC and TGA analysis of the crystalline salts of the present invention with the crystalline free base and Comparative Example 1.

S. pneumoniae = assay: In vitro MIC testing, antibacterial spectrum of activity; format: cell-based, Streptococcus pneumoniae; conditions: S. pneumoniae [PSSP] (32 isolates)
S. pyogenes = assay: as above; format: cell-based; conditions: S. pyogenes (32 isolates)
[5] = test system: Streptococcus spp. [Group C]; assay: as above; format: cell-based; conditions: Streptococcus spp. [Group C] (30 isolates)
[6] = Differential scanning calorimetry (DSC); format: physicochemical
Procedure: DSC analysis as disclosed herein was collected on a TA Instruments Q2000 equipped with a 50 position auto-sampler. The instrument was calibrated for energy and temperature using certified indium. The calibration for thermal capacity was carried out using sapphire. […] A nitrogen purge at 50 ml.min^−1 was maintained over the sample. The instrument control software used was Advantage for Q Series v2.8.0.392 and Thermal Advantage v4.8.3 and the data was analyzed using Universal Analysis v4.4A. […] The observed apparent weight loss is due to instability of the machine. Table 5 below compares the DSC and TGA analysis of the crystalline salts of the present invention with the crystalline free base and Comparative Example 1.

[7] = from about 30° C. to about 200° C.
[8] = from about 200° C. to about 250° C.

Compound: CON(C)Cc1ccc(O)c2c1C[C@H]1C[C@H]3[C@H](N(C)C)C(O)=C(C(N)=O)C(=O)[C@@]3(O)C(O)=C1C2=O [Comparative Example 2, (4S,4aS,5aR,12aS)-4-dimethylamino-3,10,12,12a-tetrahydroxy-7-[(methoxy(methyl)amino)-methyl]-1,11-dioxo-1,4,4a,5,5a,6,11,12a-octahydro-naphthacene-2-carboxylic acid amide]
- Chemical Purity at 0 days ([1]; HPLC-UV): 94.3%
- β-isomer content at 0 days ([1]; HPLC-UV): 4.4%
- Chemical Purity at 75 days ([1]; HPLC-UV): 90.4%
- β-isomer content at 75 days ([1]; HPLC-UV): 7.8%
- increase of β-isomer content after storage ([1]; storage for 75 days at ambient conditions vs 0 days): over 80%
- glass transition [2]: High glass transition (166° C.)
- β-isomer content upon storage at 63% RH ([2]; 63% RH): Increase in β-isomer content upon
- Change in form (amorphous to crystalline) ([2]; above 75% RH): Change in form (from amorphous
- β-isomer content upon storage under ambient conditions [2]: Increase in β-isomer content upon
- rate of β-isomer formation upon exposure to solvent ([2]; compared to Crystalline Mono Hydrochloride Salt): Faster rate of β-isomer formation
- form or β-isomer content upon milling or pressing [2]: Increase in β-isomer content upon
- Hygroscopicity [2]: Hygroscopic above 70% RH
- crystallization upon storage and heat/cool cycle ([2]; storage and heat/cool cycle): Stable to crystallization upon

Compound: CN(C)[C@@H]1C(O)=C(C(N)=O)C(=O)[C@@]2(O)C(O)=C3C(=O)c4c(O)cccc4[C@@](C)(O)[C@H]3C[C@@H]12 [Tetracycline, tetracycline]
- MIC Range (S. agalactiae; S. agalactiae [tetR] (7 isolates)): 16 to 64 µg/mL
- MIC Range (S. agalactiae; S. agalactiae [tetS] (3 isolates)): 0.25-0.25 μg/mL
- MIC Range (E. coli; E. coli [tetS] (7 isolates)): 1 to 4 µg/mL

Compound: CON(C)Cc1ccc(O)c2c1C[C@H]1C[C@H]3[C@H](N(C)C)C(O)=C(C(N)=O)C(=O)[C@@]3(O)C(O)=C1C2=O [Crystalline Mono Hydrochloride Salt, (4S,4aS,5aR,12aS)-4-dimethylamino-3,10,12,12a-tetrahydroxy-7-[(methoxy(methyl)amino)-methyl]-1,11-dioxo-1,4,4a,5,5a,6,11,12a-octahydro-naphthacene-2-carboxylic acid amide]
- total impurity content at 0 days ([1]; HPLC-UV, 0 days): 4 % peak area
- Chemical Purity at 0 days ([1]; HPLC-UV): 93.8% and 95.8%
- β-isomer content at 0 days ([1]; HPLC-UV): 3.8%
- Chemical Purity at 75 days ([1]; HPLC-UV): 94.8%
- β-isomer content at 75 days ([1]; HPLC-UV): 3.8%
- total impurity content after storage ([1]; about 6 months at about 40° C. and about 75% RH): 6 % peak area
- β-isomer content upon storage under ambient conditions [2]: No increase in β-isomer content
- form or β-isomer content upon milling or pressing [2]: No change in form or β-isomer
- crystallinity upon pressing and milling ([2]; pressing and milling): Some loss of crystallinity upon
- Hygroscopicity [2]: Non-hygroscopic to 90% RH
- crystal form by XRPD after storage [3]: no change in crystal form
- TGA weight loss [4, 7]: 3% weight loss from about 30 °C to
- TGA weight loss [4, 8]: 14% weight loss from about 200 °C

Compound: CC(=O)OCC1=C(C(=O)O)N2C(=O)[C@@H](NC(=O)Cc3cccs3)[C@H]2SC1 [Cephalothin]
- MIC50 (E. coli; Escherichia coli, read-out: MIC50): 32 µg/mL (≈ 80.7 µM)

Compound: Penicillin
- MIC50 (S. pneumoniae): ≤0.015 µg/mL
- MIC Range (S. pneumoniae): ≤0.015 to 0.12 µg/mL
- MIC50 (S. pyogenes): ≤0.015 µg/mL
- MIC90 (S. pyogenes): ≤0.015 µg/mL
- MIC Range (S. pyogenes): ≤0.015 to 0.25 µg/mL
- MIC Range (S. agalactiae; S. agalactiae (31 isolates)): ≤0.015 to 2 µg/mL
- MIC50 [5]: ≤0.015 µg/mL
- MIC90 [5]: ≤0.015 µg/mL
- MIC Range [5]: ≤0.015 to 0.03 µg/mL

Compound: CON(C)Cc1ccc(O)c2c1C[C@H]1C[C@H]3[C@H](N(C)C)C(O)=C(C(N)=O)C(=O)[C@@]3(O)C(O)=C1C2=O [Crystalline Sulfate Salt, (4S,4aS,5aR,12aS)-4-dimethylamino-3,10,12,12a-tetrahydroxy-7-[(methoxy(methyl)amino)-methyl]-1,11-dioxo-1,4,4a,5,5a,6,11,12a-octahydro-naphthacene-2-carboxylic acid amide]
- Chemical Purity at 0 days ([1]; HPLC-UV): 88%
- β-isomer content at 0 days ([1]; HPLC-UV): 9%
- Chemical Purity at 7 days, 40° C. and 75% RH ([1]; HPLC-UV): 91%
- β-isomer content at 7 days, 40° C. and 75% RH ([1]; HPLC-UV): 9%
- crystal form by XRPD after storage [3]: increased crystalline content
- TGA weight loss [4, 7]: 3% weight loss from about 30 °C to
- TGA weight loss [4, 8]: 14% weight loss from about 200 °C

Compound: CON(C)Cc1ccc(O)c2c1C[C@H]1C[C@H]3[C@H](N(C)C)C(O)=C(C(N)=O)C(=O)[C@@]3(O)C(O)=C1C2=O [Crystalline Free Base, (4S,4aS,5aR,12aS)-4-dimethylamino-3,10,12,12a-tetrahydroxy-7-[(methoxy(methyl)amino)-methyl]-1,11-dioxo-1,4,4a,5,5a,6,11,12a-octahydro-naphthacene-2-carboxylic acid amide]
- DSC endothermic peak [6]: 175 °C (ΔH 72 J · g^−1)
- TGA weight loss ([4]; from about 30° C. to decomposition at less than 220° C.): 15% weight loss from about 30 °C

Compound: CON(C)Cc1ccc(O)c2c1C[C@H]1C[C@H]3[C@H](N(C)C)C(O)=C(C(N)=O)C(=O)[C@@]3(O)C(O)=C1C2=O [Crystalline Mesylate Salt, (4S,4aS,5aR,12aS)-4-dimethylamino-3,10,12,12a-tetrahydroxy-7-[(methoxy(methyl)amino)-methyl]-1,11-dioxo-1,4,4a,5,5a,6,11,12a-octahydro-naphthacene-2-carboxylic acid amide]
- Chemical Purity at 0 days ([1]; HPLC-UV): 92%
- β-isomer content at 0 days ([1]; HPLC-UV): 3%
- Chemical Purity at 7 days, 40° C. and 75% RH ([1]; HPLC-UV): 98%
- β-isomer content at 7 days, 40° C. and 75% RH ([1]; HPLC-UV): 2%
- crystal form by XRPD after storage [3]: no change in crystal form
- TGA weight loss [4, 7]: 3% weight loss from about 30 °C to
- TGA weight loss [4, 8]: 7% weight loss from about 200 °C
